Data on 103 molecules can be found in ChEMBL document CHEMBL3507680, “University of Dundee, Gates Library screen for HepG2 cell viability”.

The nature of the data set: Human HepG2 cell viability assay in 384 well format. The class given is toxicity, cell-based. More on the design: dose 125 nL, time 70.5 hour; cytotoxicity at 70.5 h: concentration not given beside the values. The settings on record: HepG2 cells, read-out: Inhibition.

`CCOc1ncccc1C(=O)N1CCCC1c1c(C)nn(C)c1Cl` (stereo not drawn): the cytotoxicity at 70.5 h was 11.9%.
For the molecule `Cc1cnn(CC2CCCN2C(=O)c2ccc(F)cc2Cl)c1` (stereo not drawn), the cytotoxicity at 70.5 h worked out at 0.634%.
For `Cc1cnn(CC2CN(CC(=O)N(C)Cc3ccsc3)CCO2)c1` (stereo not drawn) the value was 5.76%; for `CC(C)CCCNC(=O)Nc1ccc(C(N)=O)c(Cl)c1`, -4.82%; for `CC(C)CCCNC(=O)Nc1ccc(Cl)c(C(N)=O)c1`, 1.37%.
`CS(=O)(=O)N1CCC(NC(=O)COc2cccc(Cl)c2)CC1`: the cytotoxicity at 70.5 h was 1.43%.
`CCOCCCNC(=O)Nc1ccc(F)c(C(N)=O)c1`: the cytotoxicity at 70.5 h turned out to be 6.9%.
`O=C(CCOc1ccccc1Cl)N1CCN(c2cnccn2)CC1`: the cytotoxicity at 70.5 h amounted to 0.75%.
For `COC(=O)c1cccn1C1CCN(Cc2cccnc2)CC1` the value was 4.46%.
As for `CCc1nc(CN2CCOC(Cn3nc(C)cc3C)C2)no1` (stereo not drawn), the cytotoxicity at 70.5 h was 38.2%.
For `Cc1ccc(C)c(S(=O)(=O)CCNC2CCc3ncnn3C2)c1` (stereo not drawn) the value was -0.666%.
Regarding `Cc1cnn(CC2CCCN2C(=O)c2ccc(Cl)cc2F)c1` (stereo not drawn), the cytotoxicity at 70.5 h was -1.79%.
For `COc1ccccc1OCC(=O)NS(=O)(=O)c1ccc(Cl)s1` the value was -2.89%.
For `COc1ncccc1C(=O)N1CCCC1c1c(C)nn(C)c1Cl` (stereo not drawn) the value was -0.671%.
`Cc1cn2nc(N3CCCCC3Cn3cccn3)sc2n1` (stereo not drawn): the cytotoxicity at 70.5 h amounted to 22.5%.
The value for `Cc1cc(C(=O)N2CCCC(n3cncn3)C2)on1` (stereo not drawn) was 26.7%; that for `c1cncc(CNC2CCc3ncnn3C2)c1` (stereo not drawn) was 34.5%; that for `c1cnn(CC2CN(CC3CCCCC3)CCO2)c1` (stereo not drawn) was -0.377%.
Consider `CC(=O)N(Cc1noc(C)n1)C1CCN(Cc2ccc(C#N)cc2)C1` (stereo not drawn), for which the cytotoxicity at 70.5 h turned out to be 30.3%.
For `Cc1ccc(CNCC2CCCN2c2cccnn2)s1` (stereo not drawn) the value was 4.46%; for `c1cnnc(N2CCCC2CNCc2cccs2)c1` (stereo not drawn), -1.72%; for `CCc1nc2n(n1)CC(NCc1cnn(Cc3ccccc3)c1)CC2` (stereo not drawn), -5.29%.
The value for `CC(NCc1nnc2n1CCCC2)C(=O)N1CCc2sccc2C1` (stereo not drawn) was -2.4%.
The value for `CC(NC(=O)NCc1ccccc1Cl)c1ccccn1` (stereo not drawn) was 19.4%; that for `CC(NC(=O)Cn1ccc(=O)n(C)c1=O)c1ccccc1F` (stereo not drawn) was -5.75%; that for `O=C(NCc1ccccn1)NCc1ccc(Cl)s1` was 20.5%.
Regarding `COc1c(CNCc2ccc(CS(C)(=O)=O)cc2)c(C)nn1C`, the cytotoxicity at 70.5 h was found to be 26.4%.
The value for `COc1c(CNCc2ccc(C(=O)N(C)C(C)C)cc2)c(C)nn1C` was 34.2%; that for `O=C(CCN1CCOC(Cn2cccn2)C1)NC1CCCCC1` (stereo not drawn) was -0.965%; that for `Cc1cn2nc(N3CCCC3Cn3cccn3)sc2n1` (stereo not drawn) was -4.17%.
The value for `Cc1nccn1C1CCCN(C(=O)Cc2cn3ccccc3n2)C1` (stereo not drawn) was 16.9%; that for `CC(C)c1cc(C(=O)N2CCCC(n3cncn3)C2)n[nH]1` (stereo not drawn) was 6.33%.
The value for `Cc1nnc(CN2CCN(C(C)c3nc(C4CC4)no3)CC2)o1` (stereo not drawn) was -1.41%; that for `Cn1ccnc1CN1CCCC1Cn1cccn1` (stereo not drawn) was -1.33%; that for `CCn1ccnc1CN1CCCN(C(=O)Cc2csc(C)n2)CC1` was -5.98%.
As for `COc1cccc(CN2CCCCC2Cn2nc(C)nc2C)c1` (stereo not drawn), the cytotoxicity at 70.5 h is -9.6%.
The value for `CN(C)c1ccc(C(=O)NCc2csc(Br)c2)cn1` was -11%; that for `CCN(CC)CC1CCN(Cc2ccn(C)c(=O)c2)CC1` was -4.81%.
Regarding `O=C(CSCc1ccncc1)NCc1csc(Br)c1`, the cytotoxicity at 70.5 h was -8.77%.
The value for `Cc1oc(C)c(C(=O)NCc2cccc(C(N)=O)c2)c1C` was -4.54%.
The value for `Cc1ccc(-n2cc(C(=O)N3CCCC(n4cccn4)C3)nn2)cc1` (stereo not drawn) was -5.27%.
Take `O=C(CN1CCc2c(ncn2C2CC2)C1)NC1CCOCC1`: the cytotoxicity at 70.5 h was -10.3%.
Turning to `Cc1nc(CN2CCN(C(C)c3nc(C4CC4)no3)CC2)no1` (stereo not drawn), the cytotoxicity at 70.5 h is -4.1%.
As for `CC(C)(CNC(=O)NCCc1ccn(-c2ccccc2)n1)C(N)=O`, the cytotoxicity at 70.5 h is -6.77%.
The value for `O=C(CCCOc1cccc(F)c1)N1CCCC(n2cncn2)C1` (stereo not drawn) was 1.02%.
The value for `CCn1ccnc1CN1CCCC1Cn1cc(C)cn1` (stereo not drawn) was 4.18%; that for `O=C(CCCOc1cccc(F)c1)N1CCCC(n2cccn2)C1` (stereo not drawn) was -5.07%; that for `Cc1noc(C)c1CN1CCN(C(C)c2nc(C3CC3)no2)CC1` (stereo not drawn) was -3.54%.
The value for `CC(C)c1nnc(CN2CCN(C(C)c3nc(C4CC4)no3)CC2)o1` (stereo not drawn) was -3.84%; that for `CCn1ccnc1CN1CCCN(C(=O)Cc2ccc(C)cc2)CC1` was -1.67%.
On to `Cc1ccc(N2CCCC(NCc3ccc(Cl)o3)C2)nn1` (stereo not drawn), for which the cytotoxicity at 70.5 h is -1.97%.
For `Cc1nn(C)c(N(C)C)c1CNC(C)c1cccc(OC(C)C)c1` (stereo not drawn) the value was -11.2%; for `Cc1nn(C)c(N(C)C)c1CNC(C)Cc1c(F)cccc1F` (stereo not drawn), -16.6%; for `CCOc1ncccc1CNC(=O)Nc1ccc(N(C)C)nc1`, 17.3%.
As to `CN(CC1CCCCC1)C(=O)c1ccc(-n2ncc(C#N)c2N)cc1`, the cytotoxicity at 70.5 h is -5.32%.
Take `O=C(Cc1c[nH]c2ccccc12)N1CCC(Nc2cccnn2)CC1`: the cytotoxicity at 70.5 h was -10.3%.
`CCN(C(=O)c1ccc(-n2ncc(C#N)c2N)cc1)C1CCCC1`: the cytotoxicity at 70.5 h is -12.1%.
The value for `CCc1nccn1C1CCCN(C(=O)c2csc(NC(C)=O)n2)C1` (stereo not drawn) was -16.5%.
For `Cc1ccc(-c2nnc(CNCCn3cc(C)cn3)o2)cc1` the value was -18.3%.
For `O=C(NCCN1CCCCC1)c1ccoc1` the value was 17.6%; for `CCCn1nc2c(cc1=O)CN(CC(=O)Nc1nnc(C)s1)CC2`, -22%.
Take `CCc1n[nH]c(C2CN(C(=O)c3ncoc3C(C)C)CCO2)n1` (stereo not drawn): the cytotoxicity at 70.5 h was -9.85%.
For `O=C(NCCCn1ccnc1)N1CCN(c2cccs2)CC1` the value was -8.6%; for `COCCN1CCCN(C(=O)NC(C)Cn2ccnc2)CC1` (stereo not drawn), 2.76%; for `Cc1nc(CNCC2CN(C)CCO2)cs1` (stereo not drawn), -4.42%.
The value for `CCc1sc(-c2nnc(CNCCn3cc(C)cn3)o2)cc1C` was -1.42%; that for `CCc1nc(C2CCCN2CCn2cncn2)no1` (stereo not drawn) was -5.31%; that for `COCCOc1cccc(C(=O)N2CCCC(n3ccnc3C)C2)c1` (stereo not drawn) was -2.47%.
The value for `Cc1nn(C)c(N(C)C)c1CNC(C)COc1cccc(F)c1` (stereo not drawn) was 23.8%; that for `CN(Cc1cn2ccccc2c1C#N)C1CCCN(c2cccnn2)C1` (stereo not drawn) was -11.9%.
`CCc1nc(C2CCCN2C(=O)CCCn2cccn2)no1` (stereo not drawn): the cytotoxicity at 70.5 h is -7.2%.
The value for `Cc1nc(COc2ccc(CNCC3CN(C)CCO3)cc2)cs1` (stereo not drawn) was 20.1%.
The value for `COCCOc1cccc(C(=O)N2CCCC(n3cccn3)C2)c1` (stereo not drawn) was -14.7%.
For `CN(Cc1noc(C2CC2)n1)C1CCN(Cc2nnc(C3CC3)o2)C1` (stereo not drawn) the value was -3.86%.
With `CC(=O)N(Cc1noc(C)n1)C1CCN(CCOc2ccccc2)C1` (stereo not drawn), the cytotoxicity at 70.5 h turned out to be 1.16%.
The value for `Cc1nc(CN2CCC(N(C)Cc3noc(C4CC4)n3)C2)oc1C` (stereo not drawn) was 4.91%; that for `Cc1nc(CN(C)C2CCN(Cc3ccc4ccccc4n3)C2)no1` (stereo not drawn) was 20.5%; that for `COCCNC(=O)Nc1ccc(F)c(C(N)=O)c1` was -6.9%.
For `CC(C)c1cc(NC(=O)CN2CCNC(=O)C2)on1` the value was -5.09%.
For `CN1CCC/C1=N\S(=O)(=O)c1ccc(NC(=O)CCc2cccs2)cc1` the value was -1.04%; for `CC(C)C(NC(=O)Cn1ccc(=O)n(C)c1=O)c1ccc(F)cc1` (stereo not drawn), -13.2%; for `Cc1cc(N2CCC(NC(=O)C3CC3)CC2)nc(-c2ccncc2)n1`, -5.8%.
In the case of `Cc1cc(N2CCC(CC(N)=O)CC2)nc(-c2ccncc2)n1`, the cytotoxicity at 70.5 h was -6.56%.
For `COc1ccc(C(C)NC(=O)Cn2ccc(=O)n(C)c2=O)cc1OC` (stereo not drawn) the value was -6.92%; for `Cc1ccc(OCC(O)CN2CCC(Cn3cccn3)CC2)cc1` (stereo not drawn), -1.48%.
For `CC(C)c1cc(NC(=O)CN2CCC(N3CCNC3=O)CC2)on1` the value was -3.58%; for `Clc1ccc(OCCCN2CCN(c3cnccn3)CC2)cc1`, -6.78%; for `CCc1nc(C)c(C(=O)NCCN2CCN(C(C)=O)CC2)s1`, -7.15%.
The value for `NC(=O)C1CCC(NC(=O)COc2ccc(Cl)c(Cl)c2)CC1` (stereo not drawn) was 2.5%; that for `Cc1cnn(CC2CCCCN2C(=O)c2cc(Cl)c[nH]2)c1` (stereo not drawn) was 7.01%; that for `COc1c(C2CCCN2C(=O)c2c[nH]c3ncccc23)c(C)nn1C` (stereo not drawn) was -5.62%.
`COc1ccccc1OCC(=O)NS(=O)(=O)c1ccccc1Br`: the cytotoxicity at 70.5 h stood at 0.476%.
For `CCc1nc(C)c(C(=O)NCCN2CCC(C)CC2)s1` the value was 0.72%; for `Cc1cc(N2CCC(Cc3ccccc3)CC2)nc(-c2ccncc2)n1`, -10.7%.
For `CCN(Cc1cccc2c1OCO2)C(=O)Nc1ccncc1` the value was 5.81%.
For `O=S(=O)(CCNC1CCc2ncnn2C1)c1ccccc1` (stereo not drawn) the value was -2.34%; for `Cc1cc(C(=O)NCC(C)N2CCc3ccccc32)no1` (stereo not drawn), 15.4%.
On to `Cc1cc(CN2CCN(C(C)c3nc(C4CC4)no3)CC2)no1` (stereo not drawn), for which the cytotoxicity at 70.5 h was -4.52%.
In the case of `O=C(COCC1CC1)N1CCCC(n2cccn2)C1` (stereo not drawn), the cytotoxicity at 70.5 h was found to be 2.78%.
The value for `CC(NC(=O)N(C)Cc1ccc(Cl)s1)c1ccccn1` (stereo not drawn) was 1.2%; that for `CNS(=O)(=O)c1cccc(CNC(=O)c2c(C)oc(C)c2C)c1` was 22.6%; that for `O=C(NCc1nnc2n1CCCC2)N1CCc2ccccc2C1` was -2.97%.
For `O=C(CCNc1ncccn1)NCCc1ccn(-c2ccccc2)n1` the value was 22%.
